The text below walks through data of US20230069886A1, “AROMATIC SULPHONAMIDES DERIVATIVES THAT INHIBITS PDI A3, THEIR SYNTHESIS AND USE” (Uniwersytet Jagiellonski, priority 2020, published 2023).

Structures are written as SMILES. In brackets after ≈: the same amount, converted by molar mass. Read-outs that look alike come from different tables or passages of the source.

Experiment [1] deals with MDA-MB-231. Briefly: MTT antiproliferative assay, 72 h, with or without estradiol, MDA-MB-231. Type of experiment: cell-based, human. The note with it: for IC50: Homo sapiens, MDA-MB-231, 72 hours exposition, MTT; for Sensitivity of MDA-MB-231 line after treatment with estradiol: estradiol (200 nM), Table 4. As to the method: (§1) Anticancer activity of selected compounds of invention, PDI A3-inhibitors has been also tested in vitro in antiproliferative assay in normoxic and hypoxic conditions as well in estrogen-stimulated cancer cells. In the experiment, cells were seeded on 96-well plates (Sarstedt, Germany) in appropriate culture medium at a density of 10^5 cells/mL 24 h before adding the tested compounds. Cells were treated with each compound in four concentrations in the range 0.1-100 μg/mL. […] After 72 h of compound treatment at 37° C., 5% CO2 humid atmosphere and in wo different oxygen level conditions: 21%—normal and <1%—hypoxia. In some experiments the MDA-MB-231 and MCF-7 cells were seeded with or without 200 nM estradiol and after 24 h the tested compounds were added. A previously described sulforhodamine B antiproliferative assay was used with minor modifications (Skehan P et al., 1990). Briefly, cells were fixed with 50 μL/well of 50% (w/v) trichloroacetic acid (Avantor Performance Materials, Gliwice, Poland). After 1 h incubation, plates were washed several times with tap water and 50 μL of 0.4% (w/v) solution of sulforhodamine B (Sigma-Aldrich, Germany) in 1% (v/v) acetic acid (Avantor Performance Materials, Gliwice, Poland) was added to each well. After 30 min incubation at room temperature, unbound dye was washed out with 1% (v/v) acetic acid, whereas bound dye was solubilized with 10 mM unbuffered TRIS (Avantor Performance Materials, Gliwice, Poland) solution. The entire procedure was performed using a BioTek EL-406 washing station (BioTek Instruments, USA). After additional 30 min, absorbance was read using a Biotek Hybrid H4 reader (BioTek Instruments, USA) at 540 nm wavelength. MTT assay was used alternatively for HL-60 cell line and in the experiment in which estrogens are added (specified in the table legend). Absorbance was measured using a Biotek Hybrid H4 reader at 570 nm wavelength for MTT assay.
(§2) Compounds at each concentration were tested in triplicate in a single experiment and each experiment was repeated at least three times independently. Results are presented as mean IC50±SD.

Experiment [2] deals with MCF-7. Briefly: MTT antiproliferative assay, 72 h, with or without estradiol, MCF-7. Type of experiment: cell-based, human. The note with it: for IC50: Homo sapiens, MCF7, 72 hours exposition, MTT; for Lower sensitivity after treatment with estradiol in MCF-7: estradiol (200 nM), Table 4. As to the method:
as §1, §2
For orientation: Tetrazolium dyes change colour on reduction, which living cells bring about.

The test system of experiment [3] is HL-60. Briefly: MTT antiproliferative assay, 72 h, HL-60. Type of experiment: cell-based, human. As to conditions: Homo sapiens, HL-60, 72 hours exposition, read-out: IC50 [μg/ml] HL-60 normal. As to the method:
as §1, §2

Experiment [4] concerns HT-29. Briefly: MTT antiproliferative assay, 72 h, HT-29. It is filed as cell-based, human. As to conditions: Homo sapiens, HT-29, 72 hours exposition, read-out: IC50 [μg/ml] HT-29 normal. As to the method: as §1, with “A previously described sulforhodamine B antiproliferative assay was used with minor modifications (Skehan P et al., 1990).” left out, “MTT assay was used alternatively for HL-60 cell line and in the experiment in which estrogens are added (specified in the table legend).” left out
as §2

The subject of experiment [5] is MCF-10A. Briefly: Selectivity index MCF-10A versus MCF-7. Type of experiment: cell-based. As to conditions: 72 hours exposition. As to the method: as §1
Compounds at each concentration were tested in triplicate in a single experiment and each experiment was repeated at least three times independently. […]

Experiment [6] concerns MDA-MB-231 cell transmigration across IL-1β-stimulated hLMVECs. In words: Transendothelial migration of MDA-MB-231 cells across hLMVEC monolayer. It is filed as cell-based, human. The note with it: IL-1β 10 ng/mL (6 hours)-stimulated hLMVECs, 24 h co-culture, FIG. 6. As to the method:
To assess whether compounds of invention, PDI A3-inhibitors are also effective as inhibitors of cancer cell transmigration through endothelium the transmigration assay with MDA-MB-231/lung microvascular endothelium was used as described previously (Stojak et al., 2018). Cell migration was assayed in 24-well, 6.5-mm internal-diameter Transwell plates (8.0 μm pore size; BD Pharmingen). Human lung microvascular endothelial cells (hLMVECs) were seeded into 24-well plates (seeding density 5×10^4 cells/insert) on the upper side of the filter and left to grow to confluence. After confluent monolayer formation, hLMVECs were pre-treated with 10 ng/mL IL-1β for 6 h. Prior to use in transmigration assay, cancer cells were pre-incubated with various concentrations (3, 10, 30, 50, 100 μM) of tested inhibitors of PDIA3, C-3390, C-3399 for 30 min. Then, MDA-MB-231 cells (each 5×10^4 per well) were placed into upper chambers and tested PDI inhibitors at various concentrations (1, 10, 30, 50, 100 μM) were given. Lower chambers were filled with medium containing chemoattractant (20% FBS or 100 ng/mL SDF-1α). After 24 h of co-culture, hLMVEC monolayers and non-migrating cancer cells on the upper surface of the membrane were removed. […] The cell number was determined by measuring the fluorescence using plate reader. […]

In experiment [7] the test system is human platelets. Briefly: Light transmission aggregometry of collagen-stimulated human platelet-rich plasma. It is filed as cell-based. The note with it: human PRP, FIG. 2, 3. As to the method:
Anti-platelet activity of compounds of invention was assessed using light transmission aggregometry assay of human platelet-rich plasma (PRP). Venous blood was obtained from male volunteers at the University Hospital Blood Bank Centre. Volunteer donors had not taken any medicines for the preceding two weeks. Blood was collected into vials containing sodium citrate (3.2%, 9:1 v/v) as an anti-coagulant agent. To obtain platelet rich plasma (PRP), blood was centrifuged at 260×g for 15 min. The platelet […] plasma fraction (used as a blank sample) was obtained by centrifugation of the remaining blood for 10 min at 2600×g. Aggregation of blood platelets was assessed in PRP with a dual channel Chronolog aggregometer (CHRONO-LOG) using a method previously described by Born^35. PRP (500 μl) was equilibrated for 2 min at 37° C. with a continuous stirring at 800 rpm and then stimulated with collagen to cause aggregation. At the beginning of each experiment, concentrations of collagen that induced sub-maximum aggregation response were determined. These concentrations were in the range of […], respectively. All the tested compounds were added 2 min prior to stimulation of platelets with collagen. Transmittance was read 6 min after stimulation of platelets with an agonist. […]

Experiment [8] relates to arterial thrombosis. Briefly: In vivo models of arterial thrombosis. The arrangement: species or system rat or mice. The note with it: FIG. 5. As to the method: To confirm antithrombotic activity of compounds of invention, inhibitors of PDIA3, pharmacological activity of selected compounds was tested in vivo in the rat or mice model of arterial thrombosis. Wistar rats were anaesthetized with pentobarbital (40 mg/kg, i.p.) and placed in a supine position on a heated (37° C.) operating table. Arterial thrombosis was induced by electrical stimulation of the right common carotid artery, as previously described (Kramkowski et al., 2012). Briefly, the anode, a stainless steel L-shaped wire, was inserted under the artery and connected to a constant current generator. The cathode was attached subcutaneously to the hind limb. The artery was stimulated (1 mA) for 10 min. Fifty-five minutes after the beginning of stimulation, the segment of the common carotid artery containing the formed thrombus was dissected and opened lengthwise, and the thrombus was completely removed and air-dried at room temperature for 24 h. Thrombus was then weighed in a blinded manner. Antithrombotic effects of compounds of invention in mice was analyzed using intravital fluorescence confocal microscopy as described previously (Hayashi T et al., 2008). […] Changes in fluorescence intensity were measured as described previously (Hayashi T et al., 2008, Kramkowski et al., 2002)

Setting [9] is: not pretreated with estradiol, read-out: IC50 [μg/ml] MDA-MB-231 normal.
The mark [10] stands for this setting: pretreated with 200 nM estradiol, read-out: IC50 [μg/ml] MDA-MB-231 +estradiol.
Setting [11] is: not pretreated with estradiol, read-out: IC50 [μg/ml] MCF-7 normal.
The mark [12] stands for this setting: pretreated with 200 nM estradiol, read-out: IC50 [μg/ml] MCF-7 +estradiol.

In the case of `COC(=O)C1CN1S(=O)(=O)c1cccc2cc(N(C)C)ccc12` (stereo not shown) [Compound C-3375, Methyl 1-[[6-(dimethylamino)-1-naphthyl]sulfonyl]aziridine-2-carboxylate], the IC50 in experiment [1] (setting [9]) is 3.8 ± 0.1 µg/mL (≈ 11.4 µM); in experiment [1] (setting [10]), 7 ± 1.1 µg/mL (≈ 20.9 µM); in experiment [2] (setting [11]), 3.5 ± 0.4 µg/mL (≈ 10.5 µM); in experiment [2] (setting [12]), 3.4 ± 0.3 µg/mL (≈ 10.2 µM); in experiment [3], 3.3 ± 0.2 µg/mL (≈ 9.87 µM); in experiment [4], 27.8 ± 7.5 µg/mL (≈ 83.1 µM). For the same compound, the “Sensitivity of MDA-MB-231 line after treatment with estradiol” value in experiment [1] was “slightly lower sensitivity”. The “Lower sensitivity after treatment with estradiol in MCF-7” value in experiment [2] is listed as “not observed”. In addition, the “Selectivity index (SI): IC50 of MCF-10A/IC50 of MCF-7” value (“Selectivity index (SI): IC50” below) in experiment [5] came to 6.90.

For the compound `CN(C)C(=O)C1CN1S(=O)(=O)c1ccc2ccccc2c1` (stereo not shown) [Compound C-3373, N,N-Dimethyl-1-(2-naphthylsulfonyl)aziridine-2-carboxamide], the IC50 amounted to 3.2 ± 0.1 µg/mL (≈ 10.5 µM) in experiment [1] (setting [9]); 3.2 ± 0.3 µg/mL (≈ 10.5 µM) in experiment [1] (setting [10]); 3.3 ± 0.1 µg/mL (≈ 10.8 µM) in experiment [2] (setting [11]); 2.6 ± 0.5 µg/mL (≈ 8.54 µM) in experiment [2] (setting [12]); 3.1 ± 0.1 µg/mL (≈ 10.2 µM) in experiment [3]; 33.4 ± 1.1 µg/mL (≈ 110 µM) in experiment [4]. Further, in experiment [5], the “Selectivity index (SI): IC50” value came out at 1.20.

For `COC(=O)C1CN1S(=O)(=O)c1ccc2c(N(C)C)cccc2c1` (stereo not shown) [Compound C-3399, Methyl 1-[[5-(dimethylamino)-2-naphthyl]sulfonyl]aziridine-2-carboxylate], the IC50 in experiment [1] (setting [9]) was 2.9 ± 0.3 µg/mL (≈ 8.67 µM); in experiment [1] (setting [10]), 6.4 ± 1.9 µg/mL (≈ 19.1 µM); in experiment [2] (setting [11]), 3.7 ± 0.3 µg/mL (≈ 11.1 µM); in experiment [2] (setting [12]), 4.3 ± 0.3 µg/mL (≈ 12.9 µM); in experiment [3] it was 2.4 ± 0.3 µg/mL (≈ 7.18 µM); in experiment [4], 4.3 ± 0.2 µg/mL (≈ 12.9 µM). Besides, the “Sensitivity of MDA-MB-231 line after treatment with estradiol” value in experiment [1] is “slightly lower sensitivity”. Moreover, the “Lower sensitivity after treatment with estradiol in MCF-7” value in experiment [2] was “not observed”. Also, in experiment [6], the “Inhibition of MDA-MB-231 cell transmigration” value is reported as “inhibited MDA-MB-231 cell transmigration”. In addition, the “Inhibition of platelet aggregation” value in experiment [7] is on record as “lowest EC50”. Besides, the “Selectivity index (SI): IC50” value in experiment [5] stood at 1.6.

Consider `COC(=O)C1CN1S(=O)(=O)c1ccc(N(C)C)cc1` (stereo not shown) [Compound C-3343, Methyl 1-[4-(dimethylamino)phenyl]sulfonylaziridine-2-carboxylate], for which, in experiment [8], the “Anti-thrombotic effects in vivo” value is listed as “anti-thrombotic effects”.
